Values of other authors in US20040253299A1, “Transdermal therapeutic system (reservoir-tts) for using pramipexole and ropinirole” (priority 2001, published 2004).

Details: administered orally

Row | Structure (SMILES) | bioavailability
1 | CCCN(CCC)CCc1cccc2c1CC(=O)N2 [Ropinirole, 4-(2-di-n-propylaminoethyl)-2-(3H)-indolone] | 50%
2 | CCCNC1CCc2nc(N)sc2C1 (centres unmarked) [pramipexole, 2-amino-6-n-propylamino-4,5,6,7-tetrahydrobenzothiazole] | 90%
